Reference: patent US7192924B2, “Corticotropin releasing factor 2 receptor agonists” (priority 2002, dated 2007)
Peptide text beside a SMILES is read from it.

Legend:
[1] = target: T1, CRF2R (Homo sapiens, UniProt Q13324); experiment: CRF2R agonist activity (EC50, Emax), called comparative CRF binding; type: cell-based; details: read-out: CRF2R EC50
T1 sequence (Q13324 1-411): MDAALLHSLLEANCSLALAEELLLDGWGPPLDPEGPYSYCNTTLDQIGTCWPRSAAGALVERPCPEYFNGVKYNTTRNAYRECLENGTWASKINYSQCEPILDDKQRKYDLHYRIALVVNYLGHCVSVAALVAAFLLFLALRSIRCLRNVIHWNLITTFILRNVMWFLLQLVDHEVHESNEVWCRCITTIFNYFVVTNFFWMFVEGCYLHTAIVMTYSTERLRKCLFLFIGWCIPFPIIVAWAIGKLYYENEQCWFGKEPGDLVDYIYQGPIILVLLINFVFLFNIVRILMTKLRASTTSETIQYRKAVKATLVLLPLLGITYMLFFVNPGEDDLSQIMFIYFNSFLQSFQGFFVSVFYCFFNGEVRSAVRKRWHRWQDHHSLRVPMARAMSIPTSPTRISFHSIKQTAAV
Description: (§1) The pharmacological activity and selectivity of the peptides of present invention can be determined using published test procedures. See, e.g, U.S. patent application Ser. No. 09/799,978. Because CRF2R and CRF1R are homologous proteins, it is expected that a certain proportion of agonists for CRF2R will also function as agonists of CRF1R. As discussed above, activation of CRF1R induces activation of the HPA axis since increased corticosteroid production leads to skeletal muscle atrophy. In most cases in which an increase in muscle mass or function is desired, it is not desirable to activate the HPA axis.
(§2) Because it is desirable to discriminate binding between CRF2R, as compared with CRF1R, the assays described above may be conducted using a cell, or membrane from a cell, which expresses only CRF2R or the assays can be conducted with a recombinant source of CRF2R. Cells expressing both forms of CRFR may be modified using homologous recombination to inactivate or otherwise disable the CRF1R gene. Alternatively, if the source of CRFR contains more than one CRFR type, the background signal produced by the receptor which is not of interest must be subtracted from the signal obtained in the assay. […] Known antagonists of CRFRs include, but, are not limited to, antalarmin (CRF1R selective), antisauvagine-30 (CRF2R selective) and astressin (nonselective for CRF1R/CRF2R).
(§3) Cell-based assays include the steps of contacting cells which express CRF1R or CRF2R with a peptide of the present invention or control and measuring activation of the CRFR by measuring the expression or activity of components of the CRFR signal transduction pathways.
(§4) As described in the background section above, CRFRs appear to couple through several different pathways including Gαs, Gαq or Gαi, depending upon the cell type. It is thought that agonist activation of CRFR allows the receptor to signal via any of these pathways, provided that the necessary pathway components are present in the particular cell type. Thus, to assay a particular peptide of the present invention for CRFR activation, an assay can use any of the signal transduction pathways as the readout even if the relevant cell type for treatment, in vivo, couples CRFR to skeletal muscle atrophy via a different pathway. […] Assays for measuring activation of these signaling pathways are known in the art.
(§5) For example, after contact with a peptide of the present invention, lysates of the cells can be prepared and assayed for induction of cAMP. cAMP is induced in response to Gαs activation. Because Gαs is activated by receptors other than CRFR and because a test peptide may be exerting its effect through CRFRs or by another mechanism, two control comparisons are relevant for determining whether the peptide increases levels of cAMP via activation of a CRFR. One control compares the cAMP level of cells contacted with the peptide and the cAMP level of cells contacted with a control compound (i.e., the vehicle in which the peptide is dissolved).
(§6) In one example, cAMP induction is measured with the use of DNA constructs containing the cAMP responsive element linked to any of a variety of reporter genes can be introduced into cells expressing CRFRs. Such reporter genes include, but are not limited to, chloramphenicol acetyltransferase (CAT), luciferase, glucuronide synthetase, growth hormone, fluorescent proteins (e.g., Green Fluorescent Protein), or alkaline phosphatase. Following exposure of the cells to the peptide, the level of reporter gene expression can be quantitated to determine the peptide's ability to increase cAMP levels and thus determine the peptide's ability to activate the CRFR.
(§7) In addition to using cells expressing full length CRFRs, cells can be engineered which express CRFRs containing the ligand binding domain of the receptor coupled to, or physically modified to contain, reporter elements or to interact with signaling proteins.

[2] = target: T2, CRF1R (Homo sapiens, UniProt P34998); experiment: CRF1R agonist activity (EC50, Emax), called comparative CRF binding; type: cell-based; details: read-out: CRF1R EC50
T2 sequence (P34998 24-415): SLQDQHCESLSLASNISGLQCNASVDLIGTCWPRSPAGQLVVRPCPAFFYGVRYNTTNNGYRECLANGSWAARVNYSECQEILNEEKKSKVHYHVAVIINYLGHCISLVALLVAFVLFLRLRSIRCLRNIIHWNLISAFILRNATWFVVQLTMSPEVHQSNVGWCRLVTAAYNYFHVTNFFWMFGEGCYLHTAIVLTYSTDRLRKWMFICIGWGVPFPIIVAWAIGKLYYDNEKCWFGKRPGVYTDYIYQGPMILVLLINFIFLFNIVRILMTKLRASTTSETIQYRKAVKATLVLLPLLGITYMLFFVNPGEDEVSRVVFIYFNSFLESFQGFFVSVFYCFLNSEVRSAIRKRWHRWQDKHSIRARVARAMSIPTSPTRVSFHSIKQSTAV
Description: as §1, §2, §3, §4, §5, §6, §7

CC[C@H](C)[C@H](N)C(=O)N[C@H](C(=O)N[C@@H](CC(C)C)C(=O)N[C@@H](CO)C(=O)N[C@@H](CC(C)C)C(=O)N[C@@H](CC(=O)O)C(=O)N[C@H](C(=O)N1CCC[C@H]1C(=O)N[C@H](C(=O)NCC(=O)N[C@@H](CC(C)C)C(=O)N[C@@H](CC(C)C)C(=O)N[C@@H](CCC(N)=O)C(=O)N[C@H](C(=O)N[C@@H](CC(C)C)C(=O)N[C@@H](CC(C)C)C(=O)N[C@@H](CCC(=O)O)C(=O)N[C@@H](CCC(N)=O)C(=O)N[C@@H](C)C(=O)N[C@@H](CCCNC(=N)N)C(=O)N[C@@H](C)C(=O)N[C@@H](CCCNC(=N)N)C(=O)N[C@@H](C)C(=O)N[C@@H](C)C(=O)N[C@@H](CCCNC(=N)N)C(=O)N[C@@H](CCC(=O)O)C(=O)N[C@@H](CCC(N)=O)C(=O)N[C@@H](C)C(=O)N[C@H](C(=O)N[C@H](C(=O)N[C@@H](CC(N)=O)C(=O)N[C@@H](C)C(=O)N[C@@H](CCCNC(=N)N)C(=O)N[C@H](C(=O)N[C@@H](CC(C)C)C(=O)N[C@@H](C)C(=O)N[C@@H](CCCNC(=N)N)C(=O)N[C@H](C(=O)N[C@@H](CCSC)C(N)=O)C(C)C)[C@@H](C)CC)[C@@H](C)O)[C@@H](C)O)[C@@H](C)CC)[C@@H](C)CC)C(C)C)C(C)C [compound 368] (H-IVLSLDVPIGLLQILLEQARARAAREQATTNARILARVM-NH2)
EC50 [1]: 50.4 nM
EC50 [2]: ≥ 1000 nM

CC[C@H](C)[C@H](N)C(=O)N[C@H](C(=O)N[C@@H](CC(C)C)C(=O)N[C@@H](CO)C(=O)N[C@@H](CC(C)C)C(=O)N[C@@H](CC(=O)O)C(=O)N[C@H](C(=O)N1CCC[C@H]1C(=O)N[C@H](C(=O)NCC(=O)N[C@@H](CC(C)C)C(=O)N[C@@H](CC(C)C)C(=O)N[C@@H](CCC(N)=O)C(=O)N[C@H](C(=O)N[C@@H](CC(C)C)C(=O)N[C@@H](CC(C)C)C(=O)N[C@@H](CCC(=O)O)C(=O)N[C@@H](CC(C)C)C(=O)N[C@@H](C)C(=O)N[C@@H](CCCNC(=N)N)C(=O)N[C@H](C(=O)N[C@@H](CCC(N)=O)C(=O)N[C@@H](CO)C(=O)N[C@@H](CCC(N)=O)C(=O)N[C@@H](CCCNC(=N)N)C(=O)N[C@@H](CCC(=O)O)C(=O)N[C@@H](CCCNC(=N)N)C(=O)N[C@@H](C)C(=O)N[C@@H](CCC(=O)O)C(=O)N[C@@H](CCC(N)=O)C(=O)N[C@@H](CC(N)=O)C(=O)N[C@@H](CCCNC(=N)N)C(=O)N[C@H](C(=O)N[C@H](C(=O)N[C@@H](Cc1ccccc1)C(=O)N[C@@H](CC(=O)O)C(=O)N[C@@H](CO)C(=O)N[C@H](C(N)=O)C(C)C)[C@@H](C)CC)[C@@H](C)CC)[C@@H](C)O)[C@@H](C)O)[C@@H](C)CC)C(C)C)C(C)C [compound 160] (H-IVLSLDVPIGLLQTLLELARTQSQRERAEQNRIIFDSV-NH2; N-terminus assumed)
EC50 [1]: 9.15 nM
EC50 [2]: > 100 nM

CC[C@H](C)[C@H](NC(=O)[C@H](C)NC(=O)[C@H](CC(N)=O)NC(=O)[C@H](CCC(N)=O)NC(=O)[C@H](CCC(=O)O)NC(=O)[C@H](C)NC(=O)[C@H](CCCNC(=N)N)NC(=O)[C@H](CCC(=O)O)NC(=O)[C@H](CCCNC(=N)N)NC(=O)[C@H](CCC(N)=O)NC(=O)[C@H](CO)NC(=O)[C@H](CCC(N)=O)NC(=O)[C@@H](NC(=O)[C@H](CCCNC(=N)N)NC(=O)[C@H](C)NC(=O)[C@H](CC(C)C)NC(=O)[C@H](CCC(=O)O)NC(=O)[C@H](CC(C)C)NC(=O)[C@H](CC(C)C)NC(=O)[C@@H](NC(=O)[C@H](CCCNC(=N)N)NC(=O)[C@H](CC(C)C)NC(=O)[C@H](CC(C)C)NC(=O)[C@H](Cc1ccccc1)NC(=O)[C@H](CC(C)C)NC(=O)[C@@H]1CCCN1C(=O)[C@H](CC(C)C)NC(=O)[C@H](CC(=O)O)NC(=O)[C@@H](NC(=O)[C@H](CO)NC(=O)[C@H](CC(C)C)NC(=O)[C@H](CO)NC(=O)[C@@H]1CCCN1C(=O)[C@H](CC(N)=O)NC(=O)[C@@H](N)CC(=O)O)[C@@H](C)CC)[C@@H](C)O)[C@@H](C)O)C(=O)N[C@H](C(=O)N[C@@H](Cc1ccccc1)C(=O)N[C@@H](C)C(=O)N[C@@H](CO)C(=O)N[C@H](C(N)=O)C(C)C)[C@@H](C)CC [compound 178] (H-DNPSLSIDLPLFLLRTLLELARTQSQRERAEQNAIIFASV-NH2; N-terminus assumed)
EC50 [1]: 5.17 nM
EC50 [2]: ≥ 1000 nM

CC[C@H](C)[C@H](N)C(=O)N[C@H](C(=O)N[C@@H](CC(C)C)C(=O)N[C@@H](CO)C(=O)N[C@@H](CC(C)C)C(=O)N[C@@H](CC(=O)O)C(=O)N[C@H](C(=O)N1CCC[C@H]1C(=O)N[C@H](C(=O)NCC(=O)N[C@@H](CC(C)C)C(=O)N[C@@H](CC(C)C)C(=O)N[C@@H](CCC(N)=O)C(=O)N[C@H](C(=O)N[C@@H](CC(C)C)C(=O)N[C@@H](CC(C)C)C(=O)N[C@@H](CCC(=O)O)C(=O)N[C@@H](CCC(N)=O)C(=O)N[C@@H](CCC(=O)O)C(=O)N[C@@H](CCCCN)C(=O)N[C@@H](C)C(=O)N[C@@H](CCCNC(=N)N)C(=O)N[C@@H](C)C(=O)N[C@@H](C)C(=O)N[C@@H](CCCNC(=N)N)C(=O)N[C@@H](CCC(=O)O)C(=O)N[C@@H](CCC(N)=O)C(=O)N[C@@H](C)C(=O)N[C@H](C(=O)N[C@H](C(=O)N[C@@H](CC(N)=O)C(=O)N[C@@H](C)C(=O)N[C@@H](CCCNC(=N)N)C(=O)N[C@H](C(=O)N[C@@H](CC(C)C)C(=O)N[C@@H](C)C(=O)N[C@@H](CCCNC(=N)N)C(=O)N[C@H](C(N)=O)C(C)C)[C@@H](C)CC)[C@@H](C)O)[C@@H](C)O)[C@@H](C)CC)[C@@H](C)CC)C(C)C)C(C)C [compound 325] (H-IVLSLDVPIGLLQILLEQEKARAAREQATTNARILARV-NH2)
EC50 [1]: 11.7 nM

CC[C@H](C)[C@H](N)C(=O)N[C@H](C(=O)N[C@@H](CC(C)C)C(=O)N[C@@H](CO)C(=O)N[C@@H](CC(C)C)C(=O)N[C@@H](CC(=O)O)C(=O)N[C@H](C(=O)N1CCC[C@H]1C(=O)N[C@H](C(=O)NCC(=O)N[C@@H](CC(C)C)C(=O)N[C@@H](CC(C)C)C(=O)N[C@@H](CCC(N)=O)C(=O)N[C@H](C(=O)N[C@@H](CC(C)C)C(=O)N[C@@H](CC(C)C)C(=O)N[C@@H](CCC(=O)O)C(=O)N[C@@H](CCC(N)=O)C(=O)N[C@@H](CCC(=O)O)C(=O)N[C@@H](CCCCN)C(=O)N[C@@H](C)C(=O)N[C@@H](CCCNC(=N)N)C(=O)N[C@@H](C)C(=O)N[C@@H](C)C(=O)N[C@@H](CCCNC(=N)N)C(=O)N[C@@H](CCC(=O)O)C(=O)N[C@@H](CCC(N)=O)C(=O)N[C@@H](C)C(=O)N[C@H](C(=O)N[C@H](C(=O)N[C@@H](CC(N)=O)C(=O)N[C@@H](C)C(=O)N[C@@H](CCCNC(=N)N)C(=O)N[C@H](C(=O)N[C@@H](CC(C)C)C(=O)N[C@@H](C)C(=O)N[C@@H](CCCNC(=N)N)C(=O)N[C@H](C(N)=O)C(C)C)[C@@H](C)CC)[C@@H](C)O)[C@@H](C)O)[C@@H](C)CC)[C@@H](C)CC)C(C)C)C(C)C [compound 107] (H-IVLSLDVPIGLLQILLEQEKARAAREQATTNARILARV-NH2)
EC50 [2]: ≥ 1000 nM
